In patent US9737502B2, “Calebin A for hepatic steatosis” (SAMI LABS LIMITED, priority 2011, dated 2017):

Columns and labels:
[1] = system: TNF-α; assay: Intracellular TNF-α in LPS-stimulated murine neutrophils (flow cytometry); format: cell-based; details: 100 μg/ml
Method: The present inventors also adduce extra evidence to support the ability of Calebin A to suppress intracellular TNF and extracellular IL-1β in murine neutrophil systems (Table II, Table III). Neutrophils are isolated by histopaque gradient method tested for their ability to produce in vitro TNF-α following stimulation with Lipopolysaccharide (LPS). The cells were incubated with phycoerythrin (PE)-labeled anti-mouse TNF-α in the dark, and after being washed with sterile PBS, samples were resuspended in PBS (pH 7.4) and acquired directly on the flow cytometer (BDLSR; Becton Dickinson). A fluorescence trigger was set on the PE […] parameter of the gated neutrophil populations (10,000 events). Rolipram at 100 μg/ml was used as standard inhibitor of TNF-α in this study. Fluorescence compensation, data analysis, and data presentation were performed using Cell Quest Pro software (Becton Dickinson).

[2] = system: IL-1β; assay: Extracellular IL-1β in LPS-stimulated murine neutrophils; format: cell-based; details: 100 μg/ml

COc1ccc(C2CNC(=O)C2)cc1OC1CCCC1 (stereo not shown) [Rolipram, reference compound]
% Activity (suppression of TNF-α expression) [1]: 72.13%↓ | Expression of TNF-α Mean ± S.E ([1]; LPS Control 2.62 ± 0.01): 0.73 ± 0.09 | % Activity (suppression of IL-1 β expression) [2]: 56.52%↓ | IL-1β Concentration ([2]; LPS Control 51.80 ± 2.18): 22.52 ± 1.60 pg/mL
